From US7579338B2, “Methods and compositions for treating atheroma, tumors and other neoplastic tissues” (Pharmacyclics, Inc., priority 1999, dated 2009)

Experiments:
MES-SA cells [1] = assay: Radiation sensitization by clonogenic assay; format: cell-based, human; conditions: 50 μM GdTex or 100 μM BSO for 24 h prior to irradiation, ascorbate-containing medium
Experimental: The response of MES-SA cells to ionizing radiation was studied using a clonogenic assay format to confirm radiation sensitization potential.
Materials and Methods. MES-SA cells (200 to 5,000 cells per dish) were plated in T-25 flasks in 8.5 mL McCoys 5A containing 10% FBS (Gibco-BRL) and ca. 2% penicillin/streptomycin solution (Sigma) and incubated at 37° C. overnight. Stock BSO, ascorbate, GdTex (or a control 5% mannitol) solutions were prepared and 0.5 mL of each added to each flask to give a final volume of 10 mL (final concentrations of BSO, ascorbate and GdTex were 100 μM, 5 μM and 50 μM, respectively) and the cells incubated for 24 hr, whereupon the flasks were irradiated using a 137Cs irradiator (Model 40 Gammacell, J. L. Shepherd & Assoc., San Fernando, Calif.) at a dose rate of 0.805 Gy/min. Medium was removed immediately after irradiation, the cells were washed with fresh medium (5.0 mL) followed by the addition of fresh medium (10 mL) and incubation for an additional 11 days. Colonies were fixed and stained with 1% crystal violet and then counted.

[2] = tested on: MES-SA human uterine cells; assay: Proliferation of MES-SA cells with BSO and GdTex (MTT); format: cell-based; conditions: Homo sapiens, MES-SA; absence of GdTex, highest (50 μM) concentration tested, ca. 72 hours; read-out: inhibitory effect of BSO alone
Experimental: The proliferation of MES-SA human uterine cells grown in McCoys 5A medium in the presence of a thiol depleting agent (BSO) or GdTex was used to assess the combined effect of these agents. The protocol outlined in the previous example was followed, with the following changes:
1. The serially diluted compound was 200 μM BSO (Sigma Chemical, St. Louis, Mo., catalogue no. G1404).
2. The cells were allowed to incubate in the presence of the two drugs for ca. 72 hours, prior to exchange of media and analysis using the colorimetric (MTT) assay, as described, e.g., in Example 5.

MES-SA cells [3] = assay: Response of MES-SA cells to ionizing radiation, microtiter plate format (MTT); format: cell-based, human; conditions: BSO 0 to 100 μM and higher, data not shown
Experimental: The response of MES-SA cells to ionizing radiation was studied using the microtiter plate format to confirm radiation sensitization potential. This assay is used to assess rapidly the effects of irradiation under a variety of conditions.
10A. Materials and Methods. MES-SA cells were incubated at 37° C. and allowed to adhere to 96-well microtiter plates (1000 cells per well) overnight in 160 μL McCoys 5A containing 10% FBS (Gibco-BRL) and ca. 2% penicillin/streptomycin solution (Sigma). BSO or media (20 μL) was added, respectively to test and control wells, 24 h prior to irradiation. Metallotexaphyrin complex (up to 100 μM) was added to the test wells to give a final volume of 200 μL, 18-24 h prior to irradiation. Plates were irradiated using a 137Cs irradiator (Model 40 Gammacell, J. L. Shepherd & Assoc., San Fernando, Calif.) at a dose rate of 33.25 Rad/min. A lead brick (2″ diameter) was positioned to protect a column of wells (no. 11) from ionizing radiation. Plate absorbances were normalized to shielded wells to allow plate-to-plate comparison. […] Reversing the position of texaphyrin complex-containing wells had no effect on assay outcome. Medium was exchanged immediately after irradiation, and plates were incubated an additional 120 h prior to analysis for viability using the MTT assay (as described, e.g., in Example 5).

[4] = tested on: EMT-6 mouse mammary sarcoma cells; assay: Proliferation of EMT-6 cells with NADPH and texaphyrin (MTT); format: cell-based; conditions: NADPH at or below 1000 μM, absence of texaphyrin
Experimental: (§1) 5A. Materials and Methods. MES-SA cells were allowed to adhere to (4) 96-well microtiter plates (4000 cells per well) overnight in 160 μL RPMI medium. Stock ascorbate 3.0 mM in medium (80 μL) was serially diluted (1:3) in rows B through F (discarding the final 80 μL). Row G was used for no-ascorbate control. Stock solutions of GdTex (2 mM in 5% mannitol) diluted in medium and 5% mannitol were prepared and added to the plates to give a final volume of 200 μL in all wells. Columns 2 and 3 contained 100 μM GdTex; columns 4 and 5 contained 75 μM GdTex, columns 6 and 7 contained 50 μM GdTex; columns 8 and 9 contained 25 μM GdTex; and columns 10 and 11 contained no GdTex (all concentrations final). Final mannitol concentration was 0.25% in all wells. The plates were incubated at 37 C under a 5% CO2/95% air atmosphere. Complex-containing medium was exchanged for fresh medium after 5 hours, and plates were incubated an additional 72 hours prior to analysis for viability using the tetrazolium dye, MTT (Mosmann, T. J. Immunol. Methods 1983, 65, 55-63). In brief, 20 μL MTT dye (Sigma Chemical, St. Louis, Mo., catalogue no. M 2128, 5 mg/mL solution in phosphate buffered saline) was added to cells in media to give a final volume of 200 μL. The plates were incubated at 37° C. for ca. 2 hours, whereupon the media was removed and isopropyl alcohol (100 μL/well) was added. Plates were vortexed for ca. 3 minutes to dissolve MTT formazan, then read on a microplate reader at 560-650 nm. Plate absorbances were normalized to wells containing neither ascorbate nor GdTex to allow plate to plate comparison. Data for each concentration of GdTex and ascorbate is the average of eight wells.
(§2) The proliferation of EMT-6 mouse mammary sarcoma (Rockwell, S. C., et al., J. Natl. Cancer Inst. 1972, 49, 735-749) cells grown in RPMI-1640 medium in the presence of NADPH and motexafin lutetium was used to assess the production of hydrogen peroxide under cell culture conditions following the protocol outlined in the previous example.
as §2, with “GdTex” for “motexafin lutetium”

[5] = tested on: MES-SA human uterine cells; assay: Proliferation of MES-SA cells with ascorbate and texaphyrin (MTT); format: cell-based; conditions: ascorbate at or below 333 μM, absence of texaphyrin
Experimental: The proliferation of MES-SA human uterine cells (Harker, W. G.; MacKintosh, F. R.; Sikic, B. I. Cancer Res. 1983, 43, 4943-4950) grown in RPMI-1640 medium in the presence of ascorbate or complex was used to assess the formation of hydrogen peroxide under cell culture conditions.
as §1
The proliferation of MES-SA human uterine cells grown in RPMI-1640 medium in the presence of ascorbate and LuTex was used to assess the production of hydrogen peroxide under cell culture conditions following the protocol outlined in the previous example.

CCCCS(=N)(=O)CC[C@H](N)C(=O)O (stereo partly drawn) [BSO, L-Buthionine-[S,R]-Sulfoximine, reference compound]
effect on clonogenic survival as a function of radiation, single agent (MES-SA cells [1]): relatively small effect on clonogenic survival
inhibition at 50 µM [2]: ~10%
effect of BSO on GdTex radiation sensitization (MES-SA cells [3]): dose-dependent from 0 to 100 μM, and leveled off at higher BSO concentrations

NC(=O)C1=CN([C@@H]2O[C@H](COP(=O)(O)OP(=O)(O)OC[C@H]3O[C@@H](n4cnc5c(N)ncnc54)[C@H](OP(=O)(O)O)[C@@H]3O)[C@@H](O)[C@H]2O)C=CC1 [NADPH, reference compound]
inhibitory effect on cell proliferation, NADPH alone [4]: no inhibitory effect

O=C1O[C@H]([C@@H](O)CO)C(O)=C1O [Ascorbate, ascorbic acid, reference compound]
inhibitory effect on cell proliferation, ascorbate alone [5]: no inhibitory effect
